This experiment has as its target T1, Angiotensin II (A II) receptor (Oryctolagus cuniculus, UniProt P34976).
T1 construct: tissue Pel-Freeze Biologicals; host or cells: rabbit aorta, membrane preparation (frozen aortae)
T1 sequence (P34976 1-359): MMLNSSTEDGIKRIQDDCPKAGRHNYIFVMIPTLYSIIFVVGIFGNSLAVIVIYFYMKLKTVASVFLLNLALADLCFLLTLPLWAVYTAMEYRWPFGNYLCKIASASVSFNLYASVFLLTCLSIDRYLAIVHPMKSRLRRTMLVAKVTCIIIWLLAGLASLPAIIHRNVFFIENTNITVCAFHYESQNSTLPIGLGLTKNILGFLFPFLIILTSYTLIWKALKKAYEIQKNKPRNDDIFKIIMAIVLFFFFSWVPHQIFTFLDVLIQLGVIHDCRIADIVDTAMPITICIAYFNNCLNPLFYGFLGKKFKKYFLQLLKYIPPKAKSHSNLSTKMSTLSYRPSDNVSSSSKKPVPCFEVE
As to the kind of experiment: Receptor binding assay using rabbit aortae membrane preparation ("IC50" assay; displacement of 125I-Sar1 Ile8-angiotensin II). To be noted: membrane preparation derived from rabbit aortae; 37° C., 90 minutes; read-out: inhibitory concentration (IC50) giving 50% displacement of the total specifically bound 125I-Sar1 Ile8-angiotensin II. The protocol: This assay is also referred to herein as the "IC 50 "assay.
RECEPTOR BINDING ASSAY USING RABBIT AORTAE MEMBRANE PREPARATION
Three frozen rabbit aortae (obtained from Pel-Freeze Biologicals) were suspended in 5 mM Tris-0.25 M Sucrose, pH 7.4 buffer (50 ml) homogenized, and then centifuged. The mixture was filtered through a cheesecloth and the supernatant was centrifuged for 30 minutes at 20,000 rpm at 4° C. The pellet thus obtained was resuspended in 30 ml of 50 mM Tris-5 mM MgCl2 buffer containing 0.2% Bovine Serum Albumin and 0.2 mg/ml Bacitration and the suspension was used for 100 assay tubes. Samples tested for screening were done in duplicate. To the membrane preparation (0.25 ml) there was added ^125 I-Sar^1 Ile^8 -angiotensin II [obtained from New England Nuclear] (10 ul; 20,000 cpm) with or without the test sample and the mixture was incubated at 37° C. for 90 minutes. The mixture was then diluted with ice-cold 50 mM Tris-0.9% NaCl, pH 7.4 (4 ml) and filtered through a glass fiber filter (GF/B Whatman 2.4" diameter). The filter was soaked in scintillation cocktail (10 ml) and counted for radioactivity using Packard 2660 Tricarb liquid scintillation counter. […]
On the technique in general: In a radioligand displacement assay an active substance lowers the binding of a labelled ligand.

On to `CCc1nc2c(C)cc(C)nc2n1Cc1ccc(-c2ccccc2-c2nnn([C@@H]3O[C@H](C(=O)O)[C@@H](O)[C@H](O)[C@H]3O)n2)cc1` [compound (I)], for which the IC50 is less than 50 µM.
